Data taken from patent US12083134B2, “Anacardic acid for neural repair” (Vanderbilt University, priority 2018, dated 2024).

Assays:
[1] = system: myelin genes Mbp, Mog and Plp and transcription elements Sp1, Sox10 and Purα in OPCs; assay: qPCR analysis of myelin gene expression in OPCs treated with AA; format: cell-based, rat; conditions: AA 2.5 μM, 3 hours
Protocol: Mbp=myelin basic protein, Plp=proteolipoprotein, Mog=myelin oligodendrocyte glycoprotein.
(§1) The effect of AA on the expression of myelin genes, MBP, and IL-33 was examined. […] Natarajan et al., PLOS One, 11(3):e0152163 (2016); Sriram et al., Neurology, Abstract presented at the American Academy of Neurology, 2016 (2016). The studies were done in OPCs obtained from rat pups. OPCs were treated with AA (2.5 μM) for 3 hours and message levels were quantified using qPCR analysis. OPCs treated with AA induced the major myelin genes Mbp, Mog and Plp.

[2] = system: IL-33 expression in OPCs; assay: q-PCR on the induction of IL-33 in OPCs cultured with AA; format: cell-based, rat; conditions: 3 h, relative to GAPDH, vehicle = 1.00
Protocol: as §1
The expression of IL-33 induced by AA in OPCs was also examined. […] (FIG. 3). The data is expressed as fold change compared to the control protein GAPDH.

[3] = system: experimental allergic encephalitis (EAE); assay: EAE treatment, AA from earliest onset of paralytic signs; format: in vivo, mice
Source text: The data is expressed as a percent area of myelin loss in three non-contiguous axial sections of the spinal cord; p<0.01 between treated and untreated groups when AA is given beginning day 0 or from the onset of symptoms.
Experimental allergic encephalitis (“EAE”) is an autoimmune inflammatory demyelinating disease of the CNS. For experimental purposes, the disease is induced in animals by immunizing the animals with myelin antigens in adjuvant. […] Ten to twelve days after immunization, paralysis develops in the animals. The degree of paralysis is scored as follows: 1=limp tail, 2=ataxia of gait and paralysis of one or more limbs, 3=paralysis of two or more limbs, 4=weakness of all limbs, 5=death.
To determine if treatment with AA would promote recovery after paralytic attack, the experiment shown in FIG. 13 was repeated but treatment with AA was not initiated until the earliest sign of disease appeared which occurred between days 11 and 12 following the initial immunization with MOG antigen. In the experiment, 10 mice were administered 0.25 mg/kg AA a day in DMSO and 10 mice were administered DMSO (vehicle). In the 10 mice that received 0.25 mg/kg AA a day, there was no difference in the mean maximal severity of the disease when compared to vehicle treated mice. The mean maximal severity was 2.8 in the vehicle treated group and was 2.6 in the AA treated group. However, there was a rapid reversal of paralysis in the AA treated group.
When AA was administered at the earliest onset of clinical signs of paralysis, the percent demyelination score in the AA treated group was 2.9. In comparison, in the vehicle treated group the percent demyelination score was 7.2 (P<0.01) (FIG. 15).

## CCCCCCCCCCCCCCCc1cccc(O)c1C(=O)O [AA, anacardic acid]
[1]
  expression of major myelin genes Mbp, Mog and Plp (message levels, qPCR): induced
  expression of transcription elements Sp1, Sox10 and Purα that bind the Mbp promoter (qPCR): upregulation
[2]; AA 2.5 μM
  Fold change of IL-33 expression: 8.54 fold
[2]; AA 5 μM
  Fold change of IL-33 expression: 4.77 fold
[3]; AA 0.25 mg/kg a day from earliest sign of disease (days 11-12), vehicle 2.8
  mean maximal severity (clinical score): 2.6
[3]; AA 0.25 mg/kg/day from earliest onset of clinical signs, vehicle 7.2, P<0.01
  percent demyelination score: 2.9%
[3]; by day 24, AA 0.25 mg/kg a day from onset, one animal grade 2 weakness
  recovery from paralysis: all the other mice had fully recovered
